Data taken from ChEMBL document CHEMBL1145106, “The role of the side chain in determining relative delta- and kappa-affinity in C5'-substituted analogues of naltrindole” (J Med Chem, 2003).

Columns and labels:
[1] = biological target: T1, Delta-type opioid receptor (Homo sapiens, UniProt P41143); assay: Ability to displace [3H]DPDPE from human recombinant Opioid receptor delta 1 in CHO cells; assay type: cell-based
Mu-type opioid receptor [2] = biological target: T2, Mu-type opioid receptor (Homo sapiens, UniProt P35372); assay: Ability to displace [3H]DAMGO from human recombinant Opioid receptor mu 1 in CHO cells; assay type: cell-based
T2 sequence (P35372 whole entry): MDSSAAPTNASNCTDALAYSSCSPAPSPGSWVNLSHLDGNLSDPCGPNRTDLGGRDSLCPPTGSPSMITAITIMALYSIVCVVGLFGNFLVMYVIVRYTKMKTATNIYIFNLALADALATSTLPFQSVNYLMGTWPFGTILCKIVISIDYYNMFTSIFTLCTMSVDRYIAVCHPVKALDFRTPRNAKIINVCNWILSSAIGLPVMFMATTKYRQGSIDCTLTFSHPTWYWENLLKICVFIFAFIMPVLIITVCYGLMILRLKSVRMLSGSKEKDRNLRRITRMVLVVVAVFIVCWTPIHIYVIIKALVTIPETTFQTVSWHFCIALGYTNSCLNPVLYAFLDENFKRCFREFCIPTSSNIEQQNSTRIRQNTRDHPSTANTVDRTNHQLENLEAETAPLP

[3] = biological target: T3, Kappa-type opioid receptor (Homo sapiens, UniProt P41145); assay type: cell-based, CHO
T3 sequence (P41145 whole entry): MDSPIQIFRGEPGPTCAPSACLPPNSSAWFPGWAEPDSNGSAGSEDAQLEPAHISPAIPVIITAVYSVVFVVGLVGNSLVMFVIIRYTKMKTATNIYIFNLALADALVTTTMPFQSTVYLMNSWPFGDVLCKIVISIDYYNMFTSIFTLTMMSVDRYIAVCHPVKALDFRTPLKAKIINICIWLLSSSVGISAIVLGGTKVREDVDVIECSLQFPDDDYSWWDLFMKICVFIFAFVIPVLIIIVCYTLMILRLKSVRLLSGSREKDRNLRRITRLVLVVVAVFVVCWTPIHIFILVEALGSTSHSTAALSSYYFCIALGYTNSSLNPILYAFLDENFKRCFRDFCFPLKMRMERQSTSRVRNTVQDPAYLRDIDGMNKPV
Description: Ability to displace [3H]U-69593 from human recombinant Opioid receptor kappa 1 in CHO cells

[4] = biological target: T1, Delta-type opioid receptor; conditions: CHO
Description: Ability to displace DPDPE from human recombinant Opioid receptor delta 1 in CHO cells using [35S]- GTP-gamma S Assay

[5] = biological target: T3, Kappa-type opioid receptor; conditions: CHO
Description: Ability to displace U-69,593 from human recombinant Opioid receptor kappa 1 in CHO cells using [35S]- GTP-gamma S Assay

Mu-type opioid receptor [6] = biological target: T2, Mu-type opioid receptor; conditions: CHO
Description: Ability to displace DAMGO from human recombinant Opioid receptor mu 1 in CHO cells using [35S]- GTP-gamma S Assay

T1 sequence (P41143 whole entry): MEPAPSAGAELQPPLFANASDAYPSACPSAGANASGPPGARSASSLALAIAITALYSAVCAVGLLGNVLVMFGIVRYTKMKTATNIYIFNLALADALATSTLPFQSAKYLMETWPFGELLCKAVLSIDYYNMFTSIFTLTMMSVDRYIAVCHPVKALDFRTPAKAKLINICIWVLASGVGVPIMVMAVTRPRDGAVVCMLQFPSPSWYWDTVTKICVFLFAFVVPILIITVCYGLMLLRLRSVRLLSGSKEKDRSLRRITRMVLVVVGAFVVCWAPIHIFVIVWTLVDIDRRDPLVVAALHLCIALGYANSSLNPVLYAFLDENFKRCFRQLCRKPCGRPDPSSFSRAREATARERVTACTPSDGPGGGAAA

| SMILES | Ki [1] | Ki (Mu-type opioid receptor [2]) | Ki [3] | Ke [4] | Ke [5] | Ke (Mu-type opioid receptor [6]) |
| --- | --- | --- | --- | --- | --- | --- |
| O=C(NCc1ccccc1)c1ccc2[nH]c3c(c2c1)C[C@@]1(O)C2Cc4ccc(O)c5c4[C@@]1(CCN2CC1CC1)[C@H]3O5 | 11.2 nM | 43.9 nM | 10.3 nM | 2.99 nM | 0.73 nM | 4.4 nM |
| CCCCCCCNC(=O)c1ccc2[nH]c3c(c2c1)C[C@@]1(O)C2Cc4ccc(O)c5c4[C@@]1(CCN2CC1CC1)[C@H]3O5 | 70.2 nM | 61.9 nM | 21.9 nM | 6.95 nM | 0.29 nM | 6.86 nM |
| CC(C)CC(=N)NCCc1ccc2[nH]c3c(c2c1)C[C@@]1(O)C2Cc4ccc(O)c5c4[C@@]1(CCN2CC1CC1)[C@H]3O5 | 20.1 nM | 47.4 nM | 1.39 nM | 5.23 nM | 0.32 nM | 14.7 nM |
| CCCC(=O)NCCc1ccc2[nH]c3c(c2c1)C[C@@]1(O)C2Cc4ccc(O)c5c4[C@@]1(CCN2CC1CC1)[C@H]3O5 | 3.7 nM | 31 nM | 0.85 nM | 0.3 nM | 0.35 nM | 3.17 nM |
| CCCCC/N=C(\N)Cc1ccc2[nH]c3c(c2c1)C[C@@]1(O)C2Cc4ccc(O)c5c4[C@@]1(CCN2CC1CC1)[C@H]3O5 | – | – | – | 3.83 nM | 0.21 nM | 5.61 nM |
| CCCCCNC(=N)Cc1ccc2[nH]c3c(c2c1)C[C@@]1(O)C2Cc4ccc(O)c5c4[C@@]1(CCN2CC1CC1)[C@H]3O5 | 17 nM | 25.3 nM | 1.44 nM | – | – | – |
| O=C(NCCc1ccccc1)c1ccc2[nH]c3c(c2c1)C[C@@]1(O)C2Cc4ccc(O)c5c4[C@@]1(CCN2CC1CC1)[C@H]3O5 | 3.53 nM | 23.5 nM | 2.21 nM | 1.21 nM | 0.17 nM | 2.7 nM |
| CCCCCCNC(=O)NCCc1ccc2[nH]c3c(c2c1)C[C@@]1(O)C2Cc4ccc(O)c5c4[C@@]1(CCN2CC1CC1)[C@H]3O5 | 2.25 nM | 13.6 nM | 8.13 nM | 1.04 nM | 1.71 nM | 1.79 nM |
| CCCCC(=N)NCCc1ccc2[nH]c3c(c2c1)C[C@@]1(O)C2Cc4ccc(O)c5c4[C@@]1(CCN2CC1CC1)[C@H]3O5 | 38.2 nM | 219 nM | 0.3 nM | 3.31 nM | 0.17 nM | 5.33 nM |
| CCCCCCC/N=C(\N)Cc1ccc2[nH]c3c(c2c1)C[C@@]1(O)C2Cc4ccc(O)c5c4[C@@]1(CCN2CC1CC1)[C@H]3O5 | – | – | – | 5.83 nM | 0.37 nM | 2.04 nM |
| CCC(=N)NCCc1ccc2[nH]c3c(c2c1)C[C@@]1(O)C2Cc4ccc(O)c5c4[C@@]1(CCN2CC1CC1)[C@H]3O5 | 21.8 nM | 26.4 nM | 0.28 nM | 1.77 nM | 0.24 nM | 4.7 nM |
| CC(=N)NCCc1ccc2[nH]c3c(c2c1)C[C@@]1(O)C2Cc4ccc(O)c5c4[C@@]1(CCN2CC1CC1)[C@H]3O5 | 21.4 nM | 22.3 nM | 0.29 nM | 1.79 nM | 0.21 nM | 3.78 nM |
| CCCCC(=O)NCCc1ccc2[nH]c3c(c2c1)C[C@@]1(O)C2Cc4ccc(O)c5c4[C@@]1(CCN2CC1CC1)[C@H]3O5 | 7.67 nM | 31.6 nM | 0.68 nM | 0.23 nM | 0.46 nM | 3.37 nM |
| CCNC(=O)NCCc1ccc2[nH]c3c(c2c1)C[C@@]1(O)C2Cc4ccc(O)c5c4[C@@]1(CCN2CC1CC1)[C@H]3O5 | 2.43 nM | 37.6 nM | 12.3 nM | 0.65 nM | 2.47 nM | 1.6 nM |
| CCCCNC(=O)NCCc1ccc2[nH]c3c(c2c1)C[C@@]1(O)C2Cc4ccc(O)c5c4[C@@]1(CCN2CC1CC1)[C@H]3O5 | 2.6 nM | 4.8 nM | 6.33 nM | 0.53 nM | 1.52 nM | 1.63 nM |
| O=C(NCCCCc1ccccc1)c1ccc2[nH]c3c(c2c1)C[C@@]1(O)C2Cc4ccc(O)c5c4[C@@]1(CCN2CC1CC1)[C@H]3O5 | 59.5 nM | 37 nM | 6.18 nM | 5.15 nM | 0.26 nM | 2.78 nM |
| CCC/N=C(\N)Cc1ccc2[nH]c3c(c2c1)C[C@@]1(O)C2Cc4ccc(O)c5c4[C@@]1(CCN2CC1CC1)[C@H]3O5 | – | – | – | 4.41 nM | 0.05 nM | 3.19 nM |
| COc1ccc(CNC(=O)c2ccc3[nH]c4c(c3c2)C[C@@]2(O)C3Cc5ccc(O)c6c5[C@@]2(CCN3CC2CC2)[C@H]4O6)cc1 | 7.41 nM | 4.64 nM | 2.11 nM | 6.2 nM | 0.28 nM | 0.94 nM |
| CCCCCCCNC(=N)Cc1ccc2[nH]c3c(c2c1)C[C@@]1(O)C2Cc4ccc(O)c5c4[C@@]1(CCN2CC1CC1)[C@H]3O5 | 7.33 nM | 56.6 nM | 5.61 nM | – | – | – |
| CCC(=O)NCCc1ccc2[nH]c3c(c2c1)C[C@@]1(O)C2Cc4ccc(O)c5c4[C@@]1(CCN2CC1CC1)[C@H]3O5 | 3.12 nM | 23 nM | 1.57 nM | 0.38 nM | 0.48 nM | 4.94 nM |
| CCCC(=N)NCCc1ccc2[nH]c3c(c2c1)C[C@@]1(O)C2Cc4ccc(O)c5c4[C@@]1(CCN2CC1CC1)[C@H]3O5 | 27.6 nM | 40.8 nM | 0.25 nM | 1.89 nM | 0.18 nM | 4.21 nM |
| CCCNC(=N)Cc1ccc2[nH]c3c(c2c1)C[C@@]1(O)C2Cc4ccc(O)c5c4[C@@]1(CCN2CC1CC1)[C@H]3O5 | 5.29 nM | 13.5 nM | 1.6 nM | – | – | – |
